Assay results reported in US7897637B2, “Methods of using flavonoids to enhance memory” (The Salk Institute for Biological Studies, priority 2006, dated 2011).
Entries after “also recorded” stand apart in the source; their conditions may differ.

Assays:
protein kinase A = details: PC12 cells; Sagara et al. 2004; cited from earlier work
Sprague-Drawley rats = assay: Morris water maze (spatial learning and memory); format: in vivo; details: 25 mg/kg by gavage
Description: This example describes use of the Morris water maze (MWM) to examine hippocampus-dependent spatial learning and memory in rats. The standard test consists of two parts; a training phase, which measures the ability of the animals to learn where a hidden platform is located within an opaque pool of water and a probe test, which is performed 24 hours after the last training trial and measures the ability of the animals to remember the location of the platform (Vorhees & Williams, Nature Protocols 1.848-58, 2(006))
To test whether oral administration of fisetin could increase spatial learning and/or memory, young male Sprague-Drawley rats (8 weeks old) were administered fisetin by gavage (25 mg/kg) beginning one day before the training phase and continuing throughout the 8 days of training. The rats were given four trials a day for 8 days. Retention of the spatial training was assessed 24 hours after the last training trial. The probe trial consisted of a 60 second free swim in the pool without the platform. Both the training and probe trials were monitored by a video camera mounted above the pool and all data were analyzed by software provided with the video-tracking program.

CREB = CREB phosphorylation in hippocampal slices (immunoblotting, densitometry); format: cell-based, rat; details: for CREB phosphoprotein signal normalized to total protein: 1 μM
Description: (§1) Western blots panels A and B) of hippocampal slices treated with (A) 1 μM fisetin or (B) pretreated for 30 minutes with either 50 μM PD98059 (PD) or 10 μM U0126 (U) before the addition of 1 μM fisetin for 5 minutes, which blots were probed with the indicated antibodies.
(§2) Hippocampal slices in artificial cerebral spinal fluid (ACSF) were treated with either 1 μM fisetin for 5-20 minutes or pretreated for 30 minutes with either 50 μM PD98059 (PD) or 10 μM U0126 (J) before the addition of 1 μM fisetin for 5 minutes. Equal amounts of protein were analyzed by SDS-PAGE and immunoblotting with antibodies to phospho-ERK and phospho-CRFB along with antibodies to the unphosphorylated forms of the proteins. The average phosphoprotein signal from the blots was quantified by densitometry and normalized to total protein was plotted±S.D.

PC12 cells = details: at 10 μM; Sagara et al. 2004; cited from earlier work
C57BL/6 mice = assay: MPTP-induced striatal dopamine loss; format: in vivo
Description: C57BL/6 mice from about 11 to 12 week old (20-25 g) were injected with a single dose of […] 1-methyl-4-phenyl-1,2,3,6-tetrahydropyridine (MPTP). MPTP is toxic to dopaminergic neurons in the substantia nigra, and produces many of the symptoms of Parkinson's disease. MPTP-treated mice have long been used as a model of human Parkinson's disease (see, e.g., reviews by Smeyne and Jackson-Lewis, Brain Bes. Mol. Brain Res., 134(1):57-66, 2005; Tetrud and Langston, Acta Neurol. Scand. Suppl., 126:35-40, 1989). After 8 days, the animals were euthanized and the striata dissected and assayed for dopamine content by HPLC combined with electrochemical detection, as previously described (Irwin e/al., Brain Res., 572:224-231, 1992). One group of untreated mice (n=4) and one group of MPTP-treated mice (n=4) received orally administered fisetin (25 mg/kg) beginning one day before treatment groups received MPTP and continuing for the same time period as MPTP treatment in treatment groups. Mice untreated with MPTP or fisetin (control) and mice treated with MPTP alone were also examined.

[1] = system: CA1 area of rat hippocampal slices; assay: Long-term potentiation in CA1 area of hippocampal slices; format: cell-based
Rabbits = assay: Small blood clot embolism model of brain ischemia (P50); format: in vivo; details: 50 mg/kg intravenously, bolus 5 minutes after embolization; 24 hours post-embolism
Description: Rabbits were embolized with small blood clots of varying size (from about 1 mg to about 4 mg) according to the procedure described by Lapchak et al. (Exp. Neurol., 188.279-285, 2004). […] In some subjects, fisetin treatment (50 mg/kg delivered intravenously) was given as a bolus 5 minutes after embolization. Twenty four (24) hours later, a naïve observer rated each treated or control animal as either behaviorally normal or abnormal. Rabbits judged “abnormal” included those with at least one of the following symptoms: ataxia, leaning, circling, lethargy, nystagmus, loss of balance, loss of sensation and occasionally paraplegia. […] The effective stroke dose or P50 value was then calculated as the amount of microclots (in mg) that produce behavioral impairment in 50% of the animals within a specific treatment group.

ERK2 (p42) = ERK2 (p42) phosphorylation in hippocampal slices (immunoblotting, densitometry); format: cell-based, rat; details: for p42 phosphoprotein signal normalized to total protein: 1 μM
Description: as §1, §2

ERK1 (p44) = ERK1 (p44) phosphorylation in hippocampal slices (immunoblotting, densitometry); format: cell-based, rat; details: for p44 phosphoprotein signal normalized to total protein: 1 μM
Description: as §1, §2

[2] = weak tetanic stimulation 15 pulses at 100 Hz
[3] = hippocampal slices, 1 μM fisetin

In the case of `O=c1c(O)c(-c2ccc(O)c(O)c2)oc2cc(O)ccc12` [fisetin, 3,3′,4′,7-tetrahydroxyflavone], the “activation of the cAMP target protein kinase A” value (protein kinase A) is given as “does not result in the activation”, the “effect on swim speed or thigmotaxis” value (Sprague-Drawley rats) is given as “no significant effect” and the “ability of the rats to learn the location of the hidden platform” value (Sprague-Drawley rats; 8 days of training) is given as “no clear effect”. For the same molecule, the “probe test: time in the quadrant where the platform had been located (spatial memory)” value (Sprague-Drawley rats; 24 hours after last training trial, vs vehicle) was “significantly more time; also recorded: enhances spatial memory”, the “CREB phosphoprotein signal normalized to total protein” value (“CREB phosphoprotein signal normalized” for short) (CREB; 5 min) was 2.87±0.56 and the “CREB phosphoprotein signal normalized” value (CREB; 10 min) was 2.72±0.12. The “CREB phosphoprotein signal normalized” value (CREB; 20 min) was 2.55±0.39, the “increase in CREB phosphorylation” value (CREB; hippocampal slices, fisetin) was roughly 3 fold and the “differentiation of the cells induced” value (PC12 cells) was 75-80%. For the same molecule, the striatal dopamine concentration (C57BL/6 mice; MPTP and fisetin 25 mg/kg oral) was “at least as high as control”, the striatal dopamine concentration (C57BL/6 mice; fisetin alone 25 mg/kg oral, no MPTP) was “highest concentrations of striatal dopamine” and the “induction of LTP following weak tetanic stimulation” value ([1]; 15 pulses at 100 Hz, fisetin 20 minutes prior to, during and after) was “LTP was induced; also recorded: facilitates the induction of LTP”. The “effect on APV-dependent inhibition of excitatory postsynaptic potentials” value ([1]; in the presence of APV) was “no effect”, the “effect on basal synaptic transmission” value ([1]; no tetanus) was “no direct effect” and the “maximal effective dose for facilitation of LTP induction” value [1, 2] was 1 µM. The “persistence of facilitated LTP” value [1, 2] was “at least 60 minutes”, the “P50 value (mg clot that produce behavioral deficits in 50% of the animals)” value (Rabbits) was 2.18 ± 0.42 mg and the “p42 phosphoprotein signal normalized to total protein” value (“p42 phosphoprotein signal normalized” below) (ERK2 (p42); 5 min) was 1.68±0.06. For the same molecule, the “p42 phosphoprotein signal normalized” value (ERK2 (p42); 10 min) was 1.31±0.05, the “p42 phosphoprotein signal normalized” value (ERK2 (p42); 20 min) was 1.42±0.03 and the “increase in ERK2 phosphorylation” value (ERK2 (p42); [3]) was 2 fold. The “p44 phosphoprotein signal normalized to total protein” value (from here on “p44 phosphoprotein signal normalized”) (ERK1 (p44); 5 min) was 1.98±0.16, the “p44 phosphoprotein signal normalized” value (ERK1 (p44); 10 min) was 1.48±0.02 and the “p44 phosphoprotein signal normalized” value (ERK1 (p44); 20 min) was 1.30±0.09. The “increase in ERK 1 phosphorylation” value (ERK1 (p44); [3]) was 2 fold.
